{"source": "PubChem BioAssay AID463074", "about": "(Broad Institute, 2010)", "tested_on": "HMLE_sh_eGFP viability, CellTiter-Glo luminescence, 72 h", "assay": "viability loss of HMLE_sh_eGFP cells – cell-based, luminescence, counter-screen for HMLE_sh_ECad selective toxicity project, dose response (AID 463074);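 note: counterscreen control line to flag general toxicity for the HMLE_sh_ECad screen; potency for loss of viability as luminescence drops below DMSO wells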", "note": "Calls of active or inactive are those of the source.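 Rule for the calls: active = AC50 no more than tenfold above the top dose tested, or full inhibition at every dose with a flat fit (cut at about 19 µM in these data); inconclusive = flat curve fit with inhibition between 30% and 70%, or poor fit; inactive = AC50 more than tenfold above the top dose tested.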", "data": [{"smiles": "COc1ccc(-c2sc3ccccc3c2-c2ccc(OCCN3CCOCC3)cc2)cc1", "values": [{"measurement": "AC50", "value": 1.51, "unit": "µM"}]}, {"smiles": "CCOC(=O)C(C)(C)N(Cc1ccc(Cl)cc1)S(=O)(=O)c1ccc(Cl)c([N+](=O)[O-])c1", "values": [{"measurement": "AC50", "value": 2.5, "unit": "µM"}]}, {"smiles": "Cc1ccc(C(=O)N2N=C(c3ccc(Br)cc3)CC2c2ccccc2O)cc1", "note": "(centres undefined)", "values": [{"measurement": "AC50", "value": 3.54, "unit": "µM"}]}, {"smiles": "Cc1ccc(/C=N/NC(=O)c2ccc3c(c2)OCCO3)s1", "values": [{"measurement": "AC50", "value": 2.49, "unit": "µM"}]}, {"smiles": "Cc1ccc(C(=O)NC2c3ccccc3-c3ccccc32)cc1", "values": [{"measurement": "AC50", "value": 0.816, "unit": "µM"}]}, {"smiles": "CC1=C(C(=O)OC2CCCC2)C(c2coc3ccccc3c2=O)C2=C(CC(C)(C)CC2=O)N1", "note": "(centres undefined)", "values": [{"measurement": "AC50", "value": "> 19.5 µM (inactive)"}]}, {"smiles": "Clc1ccc(C(Cn2ccnc2)OCc2csc3c(Cl)cccc23)c(Cl)c1", "note": "(centres undefined)", "values": [{"measurement": "AC50", "value": 3.16, "unit": "µM"}]}, {"smiles": "CCOC(=O)c1c(C)[nH]c(C(=O)N/N=C\\c2ccccc2O)c1C", "values": [{"measurement": "AC50", "value": 8.76, "unit": "µM"}]}, {"smiles": "O=C1CC(N(CCc2ccccc2)C(=S)Nc2cc(Cl)ccc2Cl)C(=O)N1c1c(Cl)cccc1Cl", "note": "(centres undefined)", "values": [{"measurement": "AC50", "value": "> 19.5 µM (inactive)"}]}, {"smiles": "Cc1occc1C(=O)Nc1ccc(OCc2ccccc2)cc1", "values": [{"measurement": "AC50", "value": 6.25, "unit": "µM"}]}, {"smiles": "COc1cc(OC)cc(-c2sc3ccc(OC)cc3c2-c2ccc(O)cc2)c1", "values": [{"measurement": "AC50", "value": 3.41, "unit": "µM"}]}, {"smiles": "CCCCCCCCCCS(=O)(=O)N/N=C/c1ccc([N+](=O)[O-])cc1", "values": [{"measurement": "AC50", "value": 12.9, "unit": "µM"}]}, {"smiles": "Cc1ccc(OC/C(O)=C(\\C#N)c2nc3ccccc3s2)cc1", "values": [{"measurement": "AC50", "value": 6.81, "unit": "µM"}]}, {"smiles": "CCCCCCSc1ccc(-c2nc3ccccn3c2NCCCC)cc1", "values": [{"measurement": "AC50", "value": 6.98, "unit": "µM"}]}, {"smiles": "NCCNc1ccc(C(=O)N2c3ccccc3Sc3ccccc32)cc1[N+](=O)[O-]", "values": [{"measurement": "AC50", "value": 8.03, "unit": "µM"}]}, {"smiles": "O=C(NCC1CCCCC1)c1cc2ccccc2cc1O", "values": [{"measurement": "AC50", "value": 7.79, "unit": "µM"}]}, {"smiles": "N#Cc1c(-c2ccccc2)c(-c2ccccc2)nn(CC(=O)NNC(=O)Nc2ccc(Cl)c(Cl)c2)c1=O", "values": [{"measurement": "AC50", "value": 3.28, "unit": "µM"}]}, {"smiles": "COc1ccc(N=C2NN=C(c3c(C)[nH]c4ccccc34)CS2)cc1", "values": [{"measurement": "AC50", "value": 7.77, "unit": "µM"}]}, {"smiles": "CC[C@@]1(O)C(=O)OCc2c1cc1n(c2=O)Cc2cc3c(NC(=O)CN)cccc3nc2-1", "values": [{"measurement": "AC50", "value": 2.56, "unit": "µM"}]}, {"smiles": "O=C1C=C(c2ccc(F)cc2OCc2ccccc2)C[C@@H](c2ccc(F)cc2)C1", "values": [{"measurement": "AC50", "value": 2.25, "unit": "µM"}]}, {"smiles": "COc1cc(Nc2nc(-c3ccccc3)c3cc(C)ccc3n2)cc(OC)c1OC", "values": [{"measurement": "AC50", "value": 5.17, "unit": "µM"}]}, {"smiles": "Cc1cccc(NS(=O)(=O)c2ccc(C3CCCCC3)cc2)c1", "values": [{"measurement": "AC50", "value": 5.18, "unit": "µM"}]}, {"smiles": "NC(=O)CC(NC(=O)Cc1cccc2ccccc12)c1ccc(NCc2ccccc2)c([N+](=O)[O-])c1", "note": "(centres undefined)", "values": [{"measurement": "AC50", "value": 5.84, "unit": "µM"}]}, {"smiles": "C/C(=N\\Nc1ccccc1)c1c(O)n(-c2ccccc2)c(=O)[nH]c1=O", "values": [{"measurement": "AC50", "value": 2.45, "unit": "µM"}]}, {"smiles": "C/C(=N\\NC(=O)c1nnn(-c2nonc2N)c1CN1CCCCC1)c1ccccc1O", "values": [{"measurement": "AC50", "value": 4.26, "unit": "µM"}]}, {"smiles": "O=S(=O)(Nc1ccc(-c2nnc(SCc3ccc(Cl)cc3)o2)cc1)c1ccccc1", "values": [{"measurement": "AC50", "value": 3.6, "unit": "µM"}]}, {"smiles": "CC(=O)N1c2ccc(Cl)cc2C2C=CCC2C1c1cccc2ccccc12", "note": "(centres undefined)", "values": [{"measurement": "AC50", "value": 5.36, "unit": "µM"}]}, {"smiles": "Cc1cc(C)c(C)c(S(=O)(=O)N2CCN(c3ccc(O)cc3)CC2)c1C", "values": [{"measurement": "AC50", "value": 10.7, "unit": "µM"}]}, {"smiles": "NC(=O)CC(NC(=O)c1ccc(Br)cc1)c1ccc(NCc2ccc(F)cc2)c([N+](=O)[O-])c1", "note": "(centres undefined)", "values": [{"measurement": "AC50", "value": 4.61, "unit": "µM"}]}, {"smiles": "COC(=O)c1ccc(COc2ccccc2/C=C(\\C#N)C(=O)Nc2c(C)cc(C)cc2C)cc1", "values": [{"measurement": "AC50", "value": 2.08, "unit": "µM"}]}, {"smiles": "O=[N+]([O-])c1ccc(COc2ccc(-c3[nH]ncc3-c3ccc(Cl)cc3)c(O)c2)cc1", "values": [{"measurement": "AC50", "value": 4.01, "unit": "µM"}]}, {"smiles": "O=C(N/N=C/c1cc(Cl)ccc1O)c1ccc(Br)cc1", "values": [{"measurement": "AC50", "value": 4.41, "unit": "µM"}]}, {"smiles": "CNC(=O)C1C(=S)NC(N)=C(C#N)C1c1ccccc1", "note": "(centres undefined)", "values": [{"measurement": "AC50", "value": "> 19.5 µM (inactive)"}]}, {"smiles": "Cc1ccc(Oc2nc(CN3CCOCC3)nc3sc4c(c23)CCC(C)C4)cc1C", "note": "(centres undefined)", "values": [{"measurement": "AC50", "value": 6.32, "unit": "µM"}]}, {"smiles": "COC(=O)c1ccc(/C=C/c2c(-c3ccc(OC)cc3)oc3ccccc23)cc1", "values": [{"measurement": "AC50", "value": 5.95, "unit": "µM"}]}, {"smiles": "CCOC(=O)c1cnc2ccc(OCC)cc2c1NCc1ccccc1OC", "values": [{"measurement": "AC50", "value": 4.7, "unit": "µM"}]}, {"smiles": "CC(=O)Oc1ccc(C#C/C=C2\\c3ccccc3C(=O)N2c2ccccc2)cc1", "values": [{"measurement": "AC50", "value": 4.92, "unit": "µM"}]}, {"smiles": "O/N=C/c1cc(Cl)ccc1OCc1ccccc1Cl", "values": [{"measurement": "AC50", "value": 6.08, "unit": "µM"}]}, {"smiles": "CCOc1ccc(/C=N/NC(=O)COc2ccccc2-c2ccccc2)cc1", "values": [{"measurement": "AC50", "value": 6.53, "unit": "µM"}]}, {"smiles": "CCCCCCSc1cccc(-c2nc3ccc(Cl)cn3c2NCc2ccccc2)c1", "values": [{"measurement": "AC50", "value": 3.12, "unit": "µM"}]}, {"smiles": "CCCCCc1cc(=O)oc2c(C(CCN3CCCCC3)c3ccc4c(c3)OCO4)c(OC)cc(OC)c12", "note": "(centres undefined)", "values": [{"measurement": "AC50", "value": 6.89, "unit": "µM"}]}, {"smiles": "C=CCOc1cccc(/C=C2\\C(=O)N(Cc3ccc(C)cc3)C(C)=C2C(=O)OC)c1", "values": [{"measurement": "AC50", "value": 7.24, "unit": "µM"}]}, {"smiles": "COc1ccc2sc(-c3ccccc3OC)c(-c3ccc(OCCN4CCCC4)cc3)c2c1", "values": [{"measurement": "AC50", "value": 3.74, "unit": "µM"}]}, {"smiles": "COc1ccccc1OCCN1CSC(=S)N(C)C1", "values": [{"measurement": "AC50", "value": 5.24, "unit": "µM"}]}, {"smiles": "Cc1c(C2(O)CCCCC2)[nH]c2cc(C(F)(F)F)ccc12", "values": [{"measurement": "AC50", "value": 5.83, "unit": "µM"}]}, {"smiles": "CC1CCN(CCCNC(=O)c2ccc3c(=O)n(Cc4ccc(Cl)cc4)c(=S)[nH]c3c2)CC1", "values": [{"measurement": "AC50", "value": 5.33, "unit": "µM"}]}, {"smiles": "COc1cccc(/C=C/c2ccc3ccccc3n2)c1OC(C)=O", "values": [{"measurement": "AC50", "value": 11.7, "unit": "µM"}]}, {"smiles": "CC(C)(C)N(Cc1ccccc1)C(=O)c1cc2ccccc2o1", "values": [{"measurement": "AC50", "value": 0.653, "unit": "µM"}]}, {"smiles": "COC(=O)c1c(NC(=O)c2ccccc2)sc2c1CC(C)(C)OC2", "values": [{"measurement": "AC50", "value": "> 19.5 µM (inactive)"}]}]}
